Assay results as given in patent publication US20180282819A1, “Targeting the Histone Pathway to Detect and Overcome Anthracyclin Resistance” (ONTARIO INSTITUTE FOR CANCER RESEARCH (OICR), priority 2015, published 2018).

Key:
Assay type in all cases: cell-based, human
[1] = tested on: MCF7 epirubicin-resistant cells; test: Cross resistance, CCK-8 viability; conditions: MCF7, 72 h
Protocol: (§1) Native and resistant cells were exposed to drug concentrations ranging from 0.3 nM to 3000 nM. Cell viability was determined 72 h later by CCK-8 assay. A) Percent of live cells relative to DMSO control was plotted against epirubicin concentration. Black=native cells, magenta=resistant cells. B) IC50 values in nM concentration±standard deviation. Resistance factor is shown in parenthesis and represents resistant IC50/native IC50.
(§2) Breast cancer cell lines (MDA-MB-231, MCF7, ZR-75-1, SKBR3) were purchased from ATCC and cultured in DMEM (except SKBR3, cultured in RPMI) supplemented with 10% heat-inactivated fetal bovine serum and 1% L-glutamine (Gibco, Burlington, Canada). Epirubicin-resistant cell lines were generated by exposing native cells to increasing concentrations of epirubicin with an initial concentration set at 0.5 nM. Resistance was defined when IC50 value superseded the IC50 value of the corresponding native cell line, and resistant cells could not tolerate further increase in drug concentration. Drug resistance and cross resistance were determined by exposing cells to drug concentrations ranging from 0.3-3000 nM for 72 h. Cell viability was determined by Cell Counting Kit-8 (CCK-8, Dojindo, Cedarlane, Burlington, Canada). IC50 were calculated in GraphPad Prism5.

[2] = tested on: MDA-MB-231 epirubicin-resistant cells; test: Cross resistance, CCK-8 viability; conditions: MDA-MB-231, 72 h
Protocol: as §1, §2

[3] = tested on: SKBR3 epirubicin-resistant cells; test: Cross resistance, CCK-8 viability; conditions: SKBR3, 72 h
Protocol: as §1, §2

[4] = tested on: ZR-75-1 epirubicin-resistant cells; test: Cross resistance, CCK-8 viability; conditions: ZR-75-1, 72 h
Protocol: as §1, §2

[5] = tested on: all four epirubicin-resistant cell lines (MDA-MB-231, MCF7, SKBR3, ZR-75-1); test: Drug resistance and cross resistance, CCK-8 viability; conditions: 72 h
Protocol: as §1, §2

[6] = tested on: 231 EpiR (epirubicin-resistant MDA-MB-231 cells); test: HDAC inhibitor cytotoxicity, CellTiter-Glo viability; conditions: for IC50: 72 h, CellTiter-Glo, in the presence of selection dose of epirubicin (25 nM)
Protocol: (§3) All inhibitors were provided by the Drug Discovery group at the Ontario Institute for Cancer Research (OICR, Toronto, Canada). Cells were seeded at 1000-1500 cells/well into 384-well plates (Greiner, Mississauga, Canada). […] After 72 h, the effects of inhibitors were determined using CellTiter-Glo Luminescent Cell Viability Assay (Promega, Madison, USA) and the Wallac EnVision 2104 Multilabel Reader (Perkin-Elmer, Woodbridge, Canada). Raw data were normalized to negative (media) and positive (20 μM staurosporine) controls and analyzed in GraphPad Prism5.

[7] = tested on: 231 Nat (native MDA-MB-231 cells); test: as above
Protocol: as §3

[8] = tested on: MCF7 EpiR (epirubicin-resistant MCF7 cells); test: as above; conditions: for IC50: 72 h, CellTiter-Glo, in the presence of selection dose of epirubicin (30 nM)
Protocol: as §3

[9] = tested on: MCF7 Nat (native MCF7 cells); test: as above
Protocol: as §3

[10] = tested on: SKBR3 EpiR (epirubicin-resistant SKBR3 cells); test: as above; conditions: for IC50: 72 h, CellTiter-Glo, in the presence of selection dose of epirubicin (15 nM)
Protocol: as §3

[11] = tested on: SKBR3 Nat (native SKBR3 cells); test: as above
Protocol: as §3

[12] = tested on: ZR75 EpiR (epirubicin-resistant ZR-75-1 cells); test: as above; conditions: 72 h, in the presence of selection dose of epirubicin (10 nM)
Protocol: as §3

[13] = tested on: ZR75 Nat (native ZR-75-1 cells); test: as above
Protocol: as §3

| Compound | cross-resistance of epirubicin-resistant cells [1] | cross-resistance of epirubicin-resistant cells [2] | cross-resistance of epirubicin-resistant cells [3] | cross-resistance of epirubicin-resistant cells [4] | cross-resistance of epirubicin-resistant cell lines [5] | IC50 [6] | IC50 ([7]; Homo sapiens, MDA-MB-231, 72 h) | IC50 [8] | IC50 ([9]; Homo sapiens, MCF7, 72 h) | IC50 [10] | IC50 ([11]; Homo sapiens, SK-BR-3, 72 h) | IC50 [12] | IC50 ([13]; Homo sapiens, ZR75, 72 h) | IC50 ([7]; 72 h) | IC50 ([9]; 72 h) | IC50 ([11]; 72 h) | IC50 ([13]; 72 h) | cytotoxicity for epirubicin-resistant cells compared to native cell lines ([6]; MDA-MB-231, with epirubicin) | cytotoxicity for epirubicin-resistant cells compared to native cell lines ([10]; SKBR3, with epirubicin) | cytotoxicity for epirubicin-resistant cells compared to native cell lines ([8]; MCF7, with epirubicin) |
| --- | --- | --- | --- | --- | --- | --- | --- | --- | --- | --- | --- | --- | --- | --- | --- | --- | --- | --- | --- | --- |
| CCc1c2c(nc3ccc(O)cc13)-c1cc3c(c(=O)n1C2)COC(=O)[C@]3(O)CC [SN-38] | tolerated only small increases in SN-38 concentrations | cross-resistant | cross-resistant | tolerated only small increases in SN-38 concentrations |  |  |  |  |  |  |  |  |  |  |  |  |  |  |  |  |
| COc1cccc2c1C(=O)c1c(O)c3c(c(O)c1C2=O)C[C@@](O)(C(=O)CO)C[C@@H]3O[C@H]1C[C@H](N)[C@H](O)[C@H](C)O1 [doxorubicin] |  |  |  |  | resistant |  |  |  |  |  |  |  |  |  |  |  |  |  |  |  |
| CCN(CC)Cc1ccc2cc(COC(=O)Nc3ccc(C(=O)NO)cc3)ccc2c1 [Givinostat] |  |  |  |  |  | 160 nM | 260 nM | 80 nM | 100 nM | 2740 nM | 220 nM | 180 nM | 170 nM |  |  |  |  |  |  |  |
| O=C(/C=C/c1cccc(S(=O)(=O)Nc2ccccc2)c1)NO [Belinostat] |  |  |  |  |  | 180 nM | 500 nM | 200 nM | 250 nM | 150 nM | 210 nM | 460 nM | 360 nM |  |  |  |  |  |  |  |
| O=C(CCCCCN1C(=O)c2cccc3cccc(c23)C1=O)NO [Scriptaid] |  |  |  |  |  | 1300 nM | 3810 nM | 720 nM | 1340 nM | 940 nM | 1250 nM | 1230 nM | 1660 nM |  |  |  |  |  |  |  |
| CC(=O)O[C@@]12CO[C@@H]1C[C@H](O)[C@@]1(C)C(=O)[C@H](O)C3=C(C)[C@@H](OC(=O)[C@H](O)[C@@H](NC(=O)OC(C)(C)C)c4ccccc4)C[C@@](O)([C@@H](OC(=O)c4ccccc4)[C@H]21)C3(C)C [docetaxel] | not taxane-resistant | not taxane-resistant | cross-resistant | not taxane-resistant |  |  |  |  |  |  |  |  |  |  |  |  |  |  |  |  |
| Cn1cc(CNCC2CCN(c3ncc(C(=O)NO)cn3)CC2)c2ccccc21 [Quisinostat] |  |  |  |  |  | 10 nM | 10 nM | 10 nM | 10 nM | 220 nM | 10 nM | 10 nM | 10 nM |  |  |  |  |  |  |  |
| O=C(/C=C/c1ccc(CN(CCO)CCc2c[nH]c3ccccc23)cc1)NO [Dacinostat] |  |  |  |  |  | 20 nM | 40 nM | 10 nM | 20 nM | 60 nM | 20 nM | 20 nM | 20 nM |  |  |  |  |  |  |  |
| Nc1ccccc1NC(=O)c1ccc(CNc2nccc(-c3cccnc3)n2)cc1 [Mocetinostat] |  |  |  |  |  | 430 nM | 850 nM | 410 nM | 320 nM | 3690 nM | 1000 nM | 430 nM | 350 nM |  |  |  |  |  |  |  |
| O=C(/C=C/c1cccc(C(=O)NO)c1)NO [CBHA] |  |  |  |  |  | 1750 nM |  | 3580 nM |  | 1030 nM |  | 2250 nM |  | 2390 nM | 1180 nM | 1450 nM | 2940 nM |  |  |  |
| CCCCc1nc2cc(/C=C/C(=O)NO)ccc2n1CCN(CC)CC [Pracinostat] |  |  |  |  |  | 180 nM | 540 nM | 120 nM | 160 nM | 920 nM | 260 nM | 230 nM | 150 nM |  |  |  |  | more cytotoxic |  |  |
| CN(C)Cc1c(C(=O)NCCOc2ccc(C(=O)NO)cc2)oc2ccccc12 [Abexinostat] |  |  |  |  |  | 120 nM | 270 nM | 90 nM | 110 nM | 2250 nM | 210 nM | 160 nM | 140 nM |  |  |  |  |  |  |  |
| CCC(=O)CCCCC[C@@H]1NC(=O)[C@H]2CCCCN2C(=O)[C@H]([C@@H](C)CC)NC(=O)[C@H](Cc2cn(OC)c3ccccc23)NC1=O |  |  |  |  |  | 110 nM |  | 110 nM |  | 2210 nM |  | 250 nM |  | 230 nM | 70 nM | 170 nM | 210 nM |  |  |  |
| CC(=O)O[C@H]1C(=O)[C@@]2(C)[C@H]([C@H](OC(=O)c3ccccc3)[C@]3(O)C[C@H](OC(=O)[C@H](O)[C@@H](NC(=O)c4ccccc4)c4ccccc4)C(C)=C1C3(C)C)[C@]1(OC(C)=O)CO[C@@H]1C[C@@H]2O [paclitaxel] | not taxane-resistant | not taxane-resistant | cross-resistant | not taxane-resistant |  |  |  |  |  |  |  |  |  |  |  |  |  |  |  |  |
| CC(/C=C/C(=O)NO)=C\[C@@H](C)C(=O)c1ccc(N(C)C)cc1 [Trichostatin A] |  |  |  |  |  | 150 nM |  | 500 nM |  | 1240 nM |  | 2280 nM |  | 330 nM |  | 1520 nM | 1830 nM |  |  |  |
| Oxamflatin |  |  |  |  |  | 290 nM |  | 250 nM |  | 690 nM |  | 1200 nM |  | 590 nM | 620 nM | 1280 nM | 680 nM |  | more cytotoxic |  |
| CC(C)(C)OC(=O)Nc1ccc(-c2cc(C(=O)NCCCCCCC(=O)NO)no2)cc1 [CAY10603] |  |  |  |  |  | 820 nM |  | 380 nM |  | 1030 nM |  | 750 nM |  | 1270 nM | 610 nM | 440 nM | 980 nM |  |  | more cytotoxic |
| Cc1[nH]c2ccccc2c1CCNCc1ccc(/C=C/C(=O)NO)cc1 [Panobinostat] |  |  |  |  |  | 10 nM | 20 nM | 10 nM | 10 nM | 70 nM | 20 nM | 20 nM | 10 nM |  |  |  |  |  |  |  |
